Laboratory results from patent publication US10168342B2, “Lipid probes and uses thereof” (THE SCRIPPS RESEARCH INSTITUTE, priority 2015, dated 2019).
Read-outs that look alike come from different tables or passages of the source.

Tests used:
[1] = target: AEA-DA lipid probe targets in Neuro2a cells (Mus musculus, UniProt P18242)
[2] = target: T1, AEA-DA lipid probe targets in Neuro2a cells (Mus musculus, UniProt Q8VCB1); details: for SILAC ratio, TMEM48 (Q8VCB1): Neuro2a cells, AEA-DA probe
T1 sequence (Q8VCB1 1-673): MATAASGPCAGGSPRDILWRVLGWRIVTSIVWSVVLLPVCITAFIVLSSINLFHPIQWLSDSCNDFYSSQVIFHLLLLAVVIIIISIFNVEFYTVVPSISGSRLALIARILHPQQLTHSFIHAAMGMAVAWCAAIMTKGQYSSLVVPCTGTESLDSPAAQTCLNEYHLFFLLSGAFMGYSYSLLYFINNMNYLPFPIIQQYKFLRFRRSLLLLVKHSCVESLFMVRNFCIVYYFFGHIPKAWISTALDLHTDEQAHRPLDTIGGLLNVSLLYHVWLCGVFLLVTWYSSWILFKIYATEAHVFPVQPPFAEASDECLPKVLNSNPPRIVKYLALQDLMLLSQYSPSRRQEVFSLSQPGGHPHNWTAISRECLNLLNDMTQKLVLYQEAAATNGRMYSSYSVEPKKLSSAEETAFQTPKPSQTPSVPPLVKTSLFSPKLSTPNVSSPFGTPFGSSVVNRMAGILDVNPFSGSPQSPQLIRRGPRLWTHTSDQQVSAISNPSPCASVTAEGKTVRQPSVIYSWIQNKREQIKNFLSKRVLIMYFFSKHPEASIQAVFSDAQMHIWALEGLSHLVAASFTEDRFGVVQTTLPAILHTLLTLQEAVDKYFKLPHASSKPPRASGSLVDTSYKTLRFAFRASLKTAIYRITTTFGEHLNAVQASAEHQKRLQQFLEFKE

[3] = target: T2, AEA-DA lipid probe targets in Neuro2a cells (Mus musculus, UniProt Q8VI75)
T2 sequence (Q8VI75 1-1082): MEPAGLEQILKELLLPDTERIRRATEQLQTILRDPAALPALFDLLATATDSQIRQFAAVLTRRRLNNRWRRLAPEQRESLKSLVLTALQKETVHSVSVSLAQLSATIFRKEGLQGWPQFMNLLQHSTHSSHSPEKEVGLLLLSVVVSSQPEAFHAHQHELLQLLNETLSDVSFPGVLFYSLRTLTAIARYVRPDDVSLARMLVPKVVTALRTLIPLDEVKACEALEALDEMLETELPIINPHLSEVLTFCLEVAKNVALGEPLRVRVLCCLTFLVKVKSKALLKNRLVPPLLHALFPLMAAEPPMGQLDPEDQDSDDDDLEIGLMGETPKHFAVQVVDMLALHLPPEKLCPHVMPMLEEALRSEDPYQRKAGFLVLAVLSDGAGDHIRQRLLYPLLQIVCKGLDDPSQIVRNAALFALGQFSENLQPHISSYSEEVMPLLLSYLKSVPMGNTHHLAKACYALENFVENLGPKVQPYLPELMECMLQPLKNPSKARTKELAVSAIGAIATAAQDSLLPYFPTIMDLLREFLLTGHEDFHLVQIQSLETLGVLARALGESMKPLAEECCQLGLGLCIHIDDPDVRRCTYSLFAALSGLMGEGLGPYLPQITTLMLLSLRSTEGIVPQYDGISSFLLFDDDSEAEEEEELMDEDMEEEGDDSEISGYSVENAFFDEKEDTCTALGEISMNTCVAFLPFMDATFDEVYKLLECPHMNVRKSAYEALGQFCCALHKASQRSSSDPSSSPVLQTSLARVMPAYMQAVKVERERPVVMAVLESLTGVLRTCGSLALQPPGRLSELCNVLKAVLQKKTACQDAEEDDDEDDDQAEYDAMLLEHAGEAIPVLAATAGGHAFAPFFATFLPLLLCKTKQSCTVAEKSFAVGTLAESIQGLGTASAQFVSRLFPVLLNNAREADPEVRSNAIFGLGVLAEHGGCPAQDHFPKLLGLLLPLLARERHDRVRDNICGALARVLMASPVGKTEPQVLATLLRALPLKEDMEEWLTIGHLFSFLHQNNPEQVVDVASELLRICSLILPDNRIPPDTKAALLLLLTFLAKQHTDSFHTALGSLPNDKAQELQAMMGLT

[4] = target: T3, AEA-DA lipid probe targets in Neuro2a cells (Mus musculus, UniProt Q922Q8)
T3 sequence (Q922Q8 1-307): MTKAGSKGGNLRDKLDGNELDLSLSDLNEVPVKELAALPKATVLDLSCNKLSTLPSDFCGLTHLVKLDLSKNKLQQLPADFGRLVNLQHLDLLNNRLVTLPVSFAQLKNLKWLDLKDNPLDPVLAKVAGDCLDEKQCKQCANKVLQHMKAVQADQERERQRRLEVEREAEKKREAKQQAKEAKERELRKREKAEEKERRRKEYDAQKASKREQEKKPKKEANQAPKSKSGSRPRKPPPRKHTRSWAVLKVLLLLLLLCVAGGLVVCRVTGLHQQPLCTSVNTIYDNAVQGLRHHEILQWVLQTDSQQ

[5] = target: T4, AEA-DA lipid probe targets in Neuro2a cells (Mus musculus, UniProt Q9D024)
T4 sequence (Q9D024 21-483): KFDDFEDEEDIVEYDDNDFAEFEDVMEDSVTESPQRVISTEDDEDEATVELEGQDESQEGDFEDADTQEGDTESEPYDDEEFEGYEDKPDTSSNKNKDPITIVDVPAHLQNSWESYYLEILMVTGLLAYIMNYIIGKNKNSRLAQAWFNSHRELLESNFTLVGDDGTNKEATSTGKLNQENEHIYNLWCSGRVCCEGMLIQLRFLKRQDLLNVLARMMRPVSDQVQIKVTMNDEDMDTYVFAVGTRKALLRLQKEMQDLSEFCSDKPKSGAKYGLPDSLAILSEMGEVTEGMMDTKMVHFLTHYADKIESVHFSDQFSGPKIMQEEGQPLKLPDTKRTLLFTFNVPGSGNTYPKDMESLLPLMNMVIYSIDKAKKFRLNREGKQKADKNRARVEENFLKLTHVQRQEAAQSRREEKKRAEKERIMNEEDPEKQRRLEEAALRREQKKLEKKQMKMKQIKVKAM

[6] = system: AEA-DA lipid probe targets in Neuro2a cells; details: for SILAC ratio, GM20425 (E9Q035): AEA-DA probe

Chain of AEA-DA lipid probe targets in Neuro2a cells (Mus musculus, UniProt P18242) (P18242 65-410): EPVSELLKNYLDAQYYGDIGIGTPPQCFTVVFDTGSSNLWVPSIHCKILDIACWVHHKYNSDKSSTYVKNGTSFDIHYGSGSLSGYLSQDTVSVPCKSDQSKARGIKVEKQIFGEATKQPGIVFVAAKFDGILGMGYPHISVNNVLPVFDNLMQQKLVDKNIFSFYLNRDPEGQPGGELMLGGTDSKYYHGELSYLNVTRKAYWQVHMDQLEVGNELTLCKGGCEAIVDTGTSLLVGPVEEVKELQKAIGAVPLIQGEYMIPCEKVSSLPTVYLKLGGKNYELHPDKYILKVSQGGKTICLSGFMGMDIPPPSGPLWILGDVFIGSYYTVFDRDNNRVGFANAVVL

CCCCC/C=C\C/C=C\C/C=C\C/C=C\CCCC(=O)NCCO [AEA, anandamide, reference compound]
SILAC ratio, Ctsd ([1]; competitor 200 μM): 1.2 | SILAC ratio, TMEM48 (Q8VCB1) ([2]; competitor 200 μM): 1.9 | SILAC ratio, Tmem48 ([2]; competitor 200 μM): 1.9 | SILAC ratio Ipo4 ([3]; competitor 200 μM): 1.5 | SILAC ratio Lrrc59 ([4]; competitor 200 μM): 1.6 | SILAC ratio, Ccdc47 ([5]; competitor 200 μM): 1.7 | competition of AEA-DA labeling by lipid competitor ([6]; Neuro2a cells, 200 μM): competed with several targets | SILAC ratio, GM20425 (E9Q035) ([6]; Neuro2a cells, competitor 200 μM): 2.3 | SILAC ratio Akr1c12 ([6]; competitor 200 μM): 1.8 | SILAC ratio Uncharacterized ([6]; competitor 200 μM): 1.7 | SILAC ratio, Akr1b10 ([6]; competitor 200 μM): 4.5 | SILAC ratio, Gm20425 ([6]; competitor 200 μM): 2.3 | SILAC ratio, Gm20671 ([6]; competitor 200 μM): 1.8 | SILAC ratio, Tmpo ([6]; competitor 200 μM, first Tmpo line (r51)): 2.0 | SILAC ratio, Tmpo ([6]; competitor 200 μM, second Tmpo line (r55)): 1.9

O=C(/C=C/c1cccnc1)NCCCCC1CCN(C(=O)c2ccccc2)CC1 [FK-866, reference compound]
SILAC ratio, Ctsd ([1]; competitor 25 μM): 1.0 | SILAC ratio, TMEM48 (Q8VCB1) ([2]; competitor 25 μM): 1.2 | SILAC ratio, Tmem48 ([2]; competitor 25 μM): 1.2 | SILAC ratio Ipo4 ([3]; competitor 25 μM): 1.3 | SILAC ratio Lrrc59 ([4]; competitor 25 μM): 1.2 | SILAC ratio, Ccdc47 ([5]; competitor 25 μM): 1.3 | competition of probe labeling of NAMPT and ABCB1B ([6]; Neuro2a cells, AEA-DA 5 μM, drug 25 μM): competed probe-labeling | SILAC ratio, GM20425 (E9Q035) ([6]; Neuro2a cells, competitor 25 μM): 1.2 | SILAC ratio Akr1c12 ([6]; competitor 25 μM): 1.3 | SILAC ratio H2-K1 ([6]; competitor 25 μM): 1.0 | SILAC ratio Nup205 ([6]; competitor 25 μM): 0.9 | SILAC ratio Uncharacterized ([6]; competitor 25 μM): 1.3 | SILAC ratio, Gm20425 ([6]; competitor 25 μM): 1.2 | SILAC ratio, Tmpo ([6]; competitor 25 μM, first Tmpo line (r51)): 1.0 | SILAC ratio, Tmpo ([6]; competitor 25 μM, second Tmpo line (r55)): 1.1
